Measurements from patent US4061626A, “Somatostatin analogs and intermediates thereto” (Eli Lilly and Company, priority 1976, dated 1977).
Where a SMILES comes first, the peptide text is derived from it.

Tests used:
[1] = tested on: glucagon secretion; assay: in vivo inhibition of glucagon secretion upon stimulation with insulin; parameters: species or system mongrel dogs; settings: dogs; insulin 0.3 units/kg. i.v.; infusion 0.07-0.13 μg/kg/min. (D-Lys^4 at 0.150, D-Ala^2,D-Lys^4 at 0.114 μg/kg/min.)
Experimental: D-Lys^4 -somatostatin and D-Ala^2,D-Lys^4 -somatostatin also were evaluated for in vivo activity in inhibiting glucagon secretion upon stimulation with insulin. Normal mongrel dogs of either sex were fasted overnight. After control blood samples had been obtained, an intravenous infusion of saline, somatostatin, D-Lys^4 -somatostatin, or D-Ala^2,D-Lys^4 -somatostatin was commenced. After 15 minutes, insulin, 0.3 units/kg., was injected intravenously. The infusion of saline, somatostatin, or the test compound was continued for two hours, and blood samples were obtained at various intervals throughout the test. The total dose of the somatostatin or test compound ranged from 120-260 μg./dog (0.07-0.13 μg/kg/min.). Administration of insulin produced a reduction in the blood glucose concentration and an increase in serum glucagon concentration.

[2] = tested on: growth hormone secretion; assay: release of growth hormone in sodium pentobarbital-stimulated rats; assay type: in vivo, Spraque-Dawley rats
Experimental: D-Lys^4 -somatostatin and D-Ala^2,D-Lys^4 -somatostatin also were tested for their activity with respect to the release of growth hormone. The procedure which was employed is carried out using mature male Spraque-Dawley rats (Laboratory Supply Company, Indianapolis, Indiana). The test is a modification of the method of P. Brazeau, W. Vale, and R. Guilleman, Endocrinology, 94 184 (1974). In this assay, two sets, one comprising five groups of eight rats each and the other comprising three groups of eight rats each were employed. First, sodium pentobarbital was administered to all of the rats of a particular set to stimulate growth hormone secretion. In the set comprising five groups of eight rats, one group is the control group and received only saline. Two of the groups received somatostatin, one at 2 μg./rat, subcutaneously, and the other at 50 μg./rat, subcutaneously. The other two groups received D-Ala^2,D-Lys^4 -somatostatin, one at 2 μg./rat, subcutaneously and the other at 50 μg./rat, subcutaneously. The degree of inhibition of serum growth hormone concentration then was determined with respect to the control group, and the relative activities of D-Ala^2,D-Lys^4 -somatostatin and somatostatin itself were compared.
The other set of three groups of eight rats each was treated in the same manner as above, with the exception the D-Lys^4 -somatostatin was used in place of D-Ala^2,D-Lys^4 -somatostatin, and the test was carried out only at a 50 μg./rat dose level. The D-Lys^4 -somatostatin stimulated growth hormone secretion by about 8 percent over control, while somatostatin in this set inhibited growth hormone secretion by 70 percent over control.

[3] = tested on: pancreatic secretion; assay: inhibition of secretin-induced pancreatic secretion in dogs with pancreatic and total gastric fistula; assay type: in vivo; settings: 3 μg/kg-hr for one hour, secretin 0.5 unit/kg-hr.
Experimental: D-Ala^2,D-Lys^4 -somatostatin was also shown to inhibit pancreatic secretion. In three dogs having both pancreatic and total gastric fistula, secretion from the pancreas was induced by infusion of secretin at 0.5 unit/kg-hr. and gastric HCl by infusion of tetragastrin at 0.5 μg/kg-hr. After a steady response was established, administration of the test compound was begun. One of the dogs was retained as control, and, of the remaining two dogs, one received somatostatin and the other D-Ala^2,D-Lys^4 -somatostatin, each for one hour at 3 μg/kg-hr.Peak inhibitory effects expressed as percent changes over control are as follows: […]

[4] = tested on: glucagon and insulin secretion; assay: in vivo inhibition of glucagon and insulin secretion upon stimulation with L-alanine; parameters: species or system mongrel dogs; settings: dogs
Experimental: D-Ala^2,D-Lys^4 -somatostatin was tested for its in vivo activity in inhibiting glucagon and insulin secretion upon stimulation with L-alanine. Normal mongrel dogs of either sex were fasted overnight. Control blood samples were obtained, and then an intravenous infusion of saline, somatostatin, or D-Ala^2,D-Lys^4 -somatostatin was started. After 30 minutes, L-alanine additionally was administered intravenously for a period of 15 minutes. The infusion of saline, somatostatin, or D-Ala^2,D-Lys^4 -somatostatin was continued for 15 minutes after completion of the alanine infusion. The total dose of somatostatin or D-Ala^2,D-Lys^4 -somatostatin which was infused is 200-500 μg./dog (0.20-0.30 μg/kg./minute), and the total dose of L-alanine infused was 1 mmol/kg.

[5] = tested on: gastric HCl secretion; assay: in vivo inhibition of gastric acid secretion in dogs with chronic gastric fistula and Heidenhain pouch; settings: infused at 3 μg/kg-hr. for one hour, secretion induced by C-terminal tetrapeptide of gastrin 0.5 μg/kg-hr
Experimental: D-Lys^4 -somatostatin and D-Ala^2,D-Lys^4 -somatostatin also were tested in dogs for their in vivo inhibition of gastric acid secretion. In dogs with chronic gastric fistula and Heidenhain pouch, gastric HCl secretion was induced by infusion of the C-terminal tetrapeptide of gastrin at 0.5 μg/kg-hr. One dog served as control, receiving only the tetrapeptide. Another dog received the tetrapeptide and somatostatin while the test compound was administered to other dogs in place of somatostatin. After one hour of steady state secretion of HCl, somatostatin or the test compound was infused at 3 μg/kg-hr. for one hour. Collection of gastric acid samples was continued for an additional 1.5 hours at 15 minute intervals.

[6] = intravenous infusion 0.20-0.30 μg/kg./minute (D-Ala^2,D-Lys^4 -somatostatin at 0.253 μg/kg/min.), L-alanine 1 mmol/kg

Structure (SMILES) | effect on the increase in serum glucagon concentration produced by insulin administration [1] | stimulation of growth hormone secretion over control ([2]; 2 μg./rat, subcutaneously, set of five groups) | stimulation of growth hormone secretion over control ([2]; 50 μg./rat, subcutaneously, set of five groups) | Pancreatic Secretion HCO3^-, peak inhibitory effect as percent change over control [3] | Pancreatic Secretion Protein, peak inhibitory effect as percent change over control [3] | Pancreatic Secretion Volume, peak inhibitory effect as percent change over control [3] | effect on basal serum insulin concentration ([4]; intravenous infusion 0.20-0.30 μg/kg./minute (D-Ala^2,D-Lys^4 -somatostatin at 0.253 μg/kg/min.)) | effect on the rise in serum glucagon concentration during infusion of L-alanine [4, 6] | effect on the rise in serum insulin concentration during infusion of L-alanine [4, 6] | effect on basal secretion of glucagon ([4]; intravenous infusion at 0.253 μg/kg/min.) | inhibition of gastric acid secretion relative to the control [5] | stimulation of growth hormone secretion over control ([2]; 50 μg./rat, set of three groups)
C[C@H](N)C(=O)N[C@H](C)C(=O)N[C@H]1CSSC[C@@H](C(=O)O)NC(=O)[C@H](CO)NC(=O)[C@H]([C@@H](C)O)NC(=O)[C@H](Cc2ccccc2)NC(=O)[C@H]([C@@H](C)O)NC(=O)[C@H](CCCCN)NC(=O)[C@H](Cc2c[nH]c3ccccc23)NC(=O)[C@H](Cc2ccccc2)NC(=O)[C@H](Cc2ccccc2)NC(=O)[C@H](CC(N)=O)NC(=O)[C@@H](CCCCN)NC1=O [D-Ala^2,D-Lys^4 -somatostatin, D-Ala^2, D-Lys^4 -somatostatin] (HELM PEPTIDE1{A.[dA].C.[dK].N.F.F.W.K.T.F.T.S.C}$PEPTIDE1,PEPTIDE1,3:R3-14:R3$$$V2.0) | neither inhibited | 114% | ~200% | -68% | -55.4% | -61% | slight decrease | partial inhibition | partial inhibition | slight decrease | 50.9% | 
C[C@H](N)C(=O)NCC(=O)N[C@H]1CSSC[C@@H](C(=O)O)NC(=O)[C@H](CO)NC(=O)[C@H]([C@@H](C)O)NC(=O)[C@H](Cc2ccccc2)NC(=O)[C@H]([C@@H](C)O)NC(=O)[C@H](CCCCN)NC(=O)[C@H](Cc2c[nH]c3ccccc23)NC(=O)[C@H](Cc2ccccc2)NC(=O)[C@H](Cc2ccccc2)NC(=O)[C@H](CC(N)=O)NC(=O)[C@@H](CCCCN)NC1=O [D-Lys^4 -somatostatin] | neither inhibited |  |  |  |  |  |  |  |  |  | 87.3% | about 8%
